The source of these data is patent US20080269170A1, “Novel 2,4-Dianilinopyrimidine Derivatives, the Preparation Thereof, Their Use as Medicaments, Pharmaceutical Compositions and, in Particular, as IKK Inhibitors” (sanofi-aventis, priority 2005, published 2008).

In general, melting point refers to the temperature of the solid-liquid transition. Turning to `CN(C1CCN(CCC(F)(F)F)CC1)S(=O)(=O)c1ccc(Nc2nccc(Nc3ccc(F)c(F)c3)n2)cc1` [Example 109, 4-({4-[(3,4-Difluorophenyl)amino]pyrimidin-2-yl}amino)-N-methyl-N-[1-(3,3,3-trifluoro-propyl)piperidin-4-yl]benzenesulfonamide], the melting point lay within 202 to 203 °C.

In the case of `Cc1cc(Nc2ccnc(Nc3ccc(S(=O)(=O)N(C)C4CCN(Cc5cccn5C)CC4)cc3)n2)ccc1F` [Example 110, 4-({4-[(4-Fluoro-3-methylphenyl)amino]-pyrimidin-2-yl}amino)-N-methyl-N-{1-[(1-methyl-1H-pyrrol-2-yl)methyl]piperidin-4-yl}benzenesulfonamide], the melting point was in the range of 159 to 160 °C.

`Cc1cc(Nc2ccnc(Nc3ccc(S(=O)(=O)N(C)C4CCN(Cc5cc[nH]c5)CC4)cc3)n2)ccc1F` [Example 111, 4-({4-[(4-Fluoro-3-methylphenyl)amino]-pyrimidin-2-yl}amino)-N-methyl-N-{1-[(1H-pyrrol-3-yl)-methyl]piperidin-4-yl}benzenesulfonamide] came in with a melting point of 134 to 139 °C.

`CN(C1CCN(CC(F)(F)F)CC1)S(=O)(=O)c1ccc(Nc2nccc(Nc3ccc(F)cc3)n2)cc1` [Example 112, 4-({4-[(4-Fluorophenyl)amino]pyrimidin-2-yl}amino)-N-methyl-N-[1-(2,2,2-trifluoroethyl)piperidin-4-yl]benzenesulfonamide] gave a melting point of 201 to 202 °C.

Molecule `CN(C1CCSCC1)S(=O)(=O)c1ccc(Nc2nccc(Nc3ccc(F)cc3)n2)cc1` [Example 113, 4-({4-[(4-Fluorophenyl)amino]pyrimidin-2-yl}amino)-N-methyl-N-(tetrahydro-2H-thiopyran-4-yl)-benzenesulfonamide] had a melting point of 181.5 °C.

Molecule `CN(C)CCN(C1CCS(=O)(=O)C1)S(=O)(=O)c1ccc(Nc2nccc(Nc3ccc(F)cc3)n2)cc1` (centres unmarked) [Example 114, N-[2-(Dimethylamino)ethyl]-N-(1,1-dioxido-tetrahydro-3-thienyl)-4-({4-[(4-fluorophenyl)amino]-pyrimidin-2-yl}amino)benzenesulfonamide] yielded a melting point of 162 to 165 °C.

The molecule `CN(C1CCC(=O)CC1)S(=O)(=O)c1ccc(Nc2nccc(Nc3ccc(F)cc3)n2)cc1` [Example 118, 4-({4-[(4-Fluorophenyl)amino]pyrimidin-2-yl}amino)-N-methyl-N-(4-oxocyclohexyl)benzenesulfonamide] had a melting point of 203 °C.

Turning to `O=S(=O)(c1ccc(Nc2nccc(Nc3ccc(F)cc3)n2)cc1)N(CCN1CCCC1)[C@H]1CC[C@H](O)CC1` [Example 119, 4-({4-[(4-Fluorophenyl)amino]pyrimidin-2-yl}amino)-N-(trans-4-hydroxycyclohexyl)-N-(2-pyrrolidin-1-ylethyl)benzenesulfonamide], the melting point was 135.2 °C.

For `CN(C1CCC(O)CC1)S(=O)(=O)c1ccc(Nc2nccc(Nc3ccc(F)cc3)n2)cc1` (centres unmarked) [Example 120, 4-({4-[(4-Fluorophenyl)amino]pyrimidin-2-yl}amino)-N-(4-hydroxycyclohexyl)-N-methylbenzene-sulfonamide], the melting point was 203 °C.

As for `CNC1CCC(N(C)S(=O)(=O)c2ccc(Nc3nccc(Nc4ccc(F)cc4)n3)cc2)CC1` (stereo not drawn) [Example 121, 4-({4-[(4-Fluorophenyl)amino]pyrimidin-2-yl}amino)-N-methyl-N-[4-cis(methylamino)cyclohexyl]-benzenesulfonamide], the melting point amounted to 192 °C.

For the molecule `CNC1CCC(N(C)S(=O)(=O)c2ccc(Nc3nccc(Nc4ccc(F)cc4)n3)cc2)CC1` (stereo not drawn) [Example 122, 4-({4-[(4-Fluorophenyl)amino]pyrimidin-2-yl}amino)-N-methyl-N-[4-trans(methylamino)cyclohexyl]-benzenesulfonamide], the melting point was found to be 195 °C.

As to `CCSCCN1CCC(NS(=O)(=O)c2ccc(Nc3nccc(Nc4ccc(F)cc4)n3)cc2)CC1` [Example 125, N-{1-[2-(Ethylthio)ethyl]piperidin-4-yl}-4-({4-[(4-fluorophenyl)amino]pyrimidin-2-yl}amino)-benzenesulfonamide], the melting point amounted to 194 °C.

`CS(=O)(=O)CCN1CCC(NS(=O)(=O)c2ccc(Nc3nccc(Nc4ccc(F)cc4)n3)cc2)CC1` [Example 126, 4-({4-[(4-Fluorophenyl)amino]pyrimidin-2-yl}amino)-N-{1-[2-(methylsulfonyl)ethyl]piperidin-4-yl}benzenesulfonamide] gave a melting point of 183 °C.

For `COCCN(C1CCS(=O)(=O)C1)S(=O)(=O)c1ccc(Nc2nccc(Nc3ccc(F)cc3)n2)cc1` (centres unmarked) [Example 127, 4-[[4-[(4-Fluorophenyl)amino]-2-pyrimidin-yl]amino]-N-(2-methoxyethyl)-N-(tetrahydro-1,1-dioxido-3-thienyl)benzenesulfonamide], the melting point came to 150 °C.

`C=CCN(C1CCN(C)CC1)S(=O)(=O)c1ccc(Nc2nccc(Nc3ccc(F)cc3)n2)cc1` [Example 128, 4-({4-[(4-Fluorophenyl)amino]pyrimidin-2-yl}amino)-N-allyl-N-(1-methylpiperidin-4-yl)benzene-sulfonamide] returned a melting point of 167 °C.

In turn, `Cc1cc(Nc2ccnc(Nc3ccc(S(=O)(=O)N(C)C4CCN(CCS(C)(=O)=O)CC4)cc3)n2)ccc1F` [Example 129, 4-({4-[(4-Fluoro-3-methylphenyl)amino]-pyrimidin-2-yl}amino)-N-methyl-N-{1-[2-(methyl-sulfonyl)ethyl]piperidin-4-yl}benzenesulfonamide] registered a melting point of 114.5 °C.

Take `CCCN(C1CCN(C)CC1)S(=O)(=O)c1ccc(Nc2nccc(Nc3ccc(F)cc3)n2)cc1` [Example 130, 4-({4-[(4-Fluorophenyl)amino]pyrimidin-2-yl}amino)-N-propyl-N-(1-methylpiperidin-4-yl)benzene-sulfonamide]: the melting point was determined as 232 °C.

`Cc1cc(Nc2ccnc(Nc3ccc(S(=O)(=O)N(C)C4CCN(Cc5nccs5)CC4)cc3)n2)ccc1F` [Example 131, 4-({4-[(4-Fluoro-3-methylphenyl)amino]-pyrimidin-2-yl}amino)-N-methyl-N-{1-[(1-thiazol-2-yl)-methyl]piperidin-4-yl}benzenesulfonamide]: the melting point fell in the range of 176 to 177 °C.

The molecule `Cc1cc(Nc2ccnc(Nc3ccc(S(=O)(=O)N(C)C4CCN(Cc5cncs5)CC4)cc3)n2)ccc1F` [Example 132, 4-({4-[(4-Fluoro-3-methylphenyl)amino]-pyrimidin-2-yl}amino)-N-methyl-N-{1-[(1-thiazol-5-yl)-methyl]piperidin-4-yl}benzenesulfonamide] came in with a melting point of 196 to 197 °C.

Take `Cc1cc(Nc2ccnc(Nc3ccc(S(=O)(=O)N(C)C4CCN(Cc5cn[nH]c5)CC4)cc3)n2)ccc1F` [Example 134, 4-({4-[(4-Fluoro-3-methylphenyl)amino]-pyrimidin-2-yl}amino)-N-methyl-N-{1-[(1H-pyrazol-4-yl)methyl]piperidin-4-yl}benzenesulfonamide]: the melting point was found to be 224 °C.

`Cc1cc(Nc2ccnc(Nc3ccc(S(=O)(=O)N(C)C4CCN(Cc5cnn(C)c5)CC4)cc3)n2)ccc1F` [Example 135, 4-({4-[(4-Fluoro-3-methylphenyl)amino]-pyrimidin-2-yl}amino)-N-methyl-N-{1-[(1-methyl-1H-pyrazol-4-yl)methyl]piperidin-4-yl}benzenesulfonamide]: the melting point fell in the range of 125 to 150 °C.

For the molecule `Cc1cc(CN2CCC(N(C)S(=O)(=O)c3ccc(Nc4nccc(Nc5ccc(F)c(C)c5)n4)cc3)CC2)[nH]n1` [Example 136, 4-({4-[(4-Fluoro-3-methylphenyl)amino]-pyrimidin-2-yl}amino)-N-methyl-N-{1-[(5-methyl-2H-pyrazol-3-yl)methyl]piperidin-4-yl}benzenesulfonamide], the melting point was 130 °C.

Regarding `Cc1cc(Nc2ccnc(Nc3ccc(S(=O)(=O)N(C)C4CCC(F)(F)CC4)cc3)n2)ccc1F` [Example 137, N-(4,4-Difluorocyclohexyl)-4-[4-(4-fluoro-3-methylphenylamino)pyrimidin-2-ylamino]-N-methyl-benzenesulfonamide], the melting point lay in the range of 164 to 165 °C.

Regarding `Cc1cc(CN2CCC(N(C)S(=O)(=O)c3ccc(Nc4nccc(Nc5ccc(F)c(C)c5)n4)cc3)CC2)no1` [Example 138, 4-({4-[(4-Fluoro-3-methylphenyl)amino]-pyrimidin-2-yl}amino)-N-methyl-N-{1-[(5-methylisoxazol-3-yl)methyl]piperidin-4-yl}benzenesulfonamide], the melting point is 172 to 173 °C.

Turning to `Cc1cc(Nc2ccnc(Nc3ccc(S(=O)(=O)N(C)C4CCCN(C)C4)cc3)n2)ccc1F` (centres unmarked) [Example 139, 4-({4-[(4-Fluoro-3-methylphenyl)amino]-pyrimidin-2-yl}amino)-N-methyl-N-(1-methylpiperidin-3-yl)benzenesulfonamide], the melting point is 188 °C.

In the case of `CN(C)C1CCC(N(C)S(=O)(=O)c2ccc(Nc3nccc(Nc4ccc(F)cc4)n3)cc2)CC1` (stereo not drawn) [Example 140, 4-({4-[(4-Fluorophenyl)amino]pyrimidin-2-yl}amino)-N-methyl-N-[4-cis(dimethylamino)cyclohexyl]-benzenesulfonamide], the melting point is 222 °C.

Turning to `CN(C)C1CCC(N(C)S(=O)(=O)c2ccc(Nc3nccc(Nc4ccc(F)cc4)n3)cc2)CC1` (stereo not drawn) [Example 141, 4-({4-[(4-Fluorophenyl)amino]pyrimidin-2-yl}amino)-N-methyl-N-[4-trans(dimethylamino)cyclo-hexyl]benzenesulfonamide], the melting point was 218 °C.

Regarding `CCNC1CCC(N(C)S(=O)(=O)c2ccc(Nc3nccc(Nc4ccc(F)cc4)n3)cc2)CC1` (stereo not drawn) [Example 142, 4-({4-[(4-Fluorophenyl)amino]pyrimidin-2-yl}amino)-N-methyl-N-[4-cis(ethylamino)cyclohexyl]-benzenesulfonamide], the melting point came to 188 °C.

As to `CCNC1CCC(N(C)S(=O)(=O)c2ccc(Nc3nccc(Nc4ccc(F)cc4)n3)cc2)CC1` (stereo not drawn) [Example 143, 4-({4-[(4-Fluorophenyl)amino]pyrimidin-2-yl}amino)-N-methyl-N-[4-trans(ethylamino)cyclohexyl]-benzenesulfonamide], the melting point was 178 °C.
